Data as given in ChEMBL document CHEMBL4725491, “Staurosporine Analogs Via C-H Borylation” (ACS Med Chem Lett, 2020).
pIC50: −log10 of the molar value.

Assays:
[1] = system: MDA-MB-231; experiment: Cytotoxicity against human MDA-MB-231 cells assessed as reduction in cell metabolic activity after 72 hrs by MTS assay; assay type: functional, cell-based; details: MDA-MB-231, 72 h
[2] = Cytotoxicity against human HMLE cells assessed as reduction in cell metabolic activity after 72 hrs by MTS assay; assay type: ADME, cell-based

| SMILES | pIC50 [1] | pIC50 [2] |
| --- | --- | --- |
| CN[C@@H]1C[C@H]2O[C@@](C)([C@@H]1OC)n1c3ccc(O)cc3c3c4c(c5c6ccccc6n2c5c31)C(=O)NC4 | 8.70 | 7.56 |
| CN[C@@H]1C[C@H]2O[C@@](C)([C@@H]1OC)n1c3cc(O)ccc3c3c4c(c5c6ccccc6n2c5c31)C(=O)NC4 | 8.47 | 7.23 |
| CN[C@@H]1C[C@H]2O[C@@](C)([C@@H]1OC)n1c3ccccc3c3c4c(c5c6ccccc6n2c5c31)C(=O)NC4 [STAUROSPORINE] | 8.60 |  |
